{"source": "paper PMC4010497", "about": "“Synthesis and Evaluation of Fluorine-Substituted Phenyl Acetate Derivatives as Ultra-Short Recovery Sedative/Hypnotic Agents” (PLoS ONE, 2014)", "key": {"[1]": {"tested_on": "mice", "experiment": "animal or person", "assay_type": "in vivo", "settings": "for ED50: Mus musculus", "description": "(§1) All tests were performed during the light period. Groups of mice, rats and rabbits were injected intravenously (lateral tail vein) over 10 s with each dose of test compound, placed in separate boxes to reduce external stimuli and assessed for the loss of righting reflex. Dosing was performed using mg/kg scheme. A set of dose levels was chosen, and depending on whether the loss of righting reflex was observed, extra doses were introduced to provide data for the loss of righting reflex over a narrow dose range to allow potency calculations. From the percentage of mice, rats and rabbits in each group showing loss of righting reflex for ≥30 s, a probit analysis (SAS Institute) was performed to obtain an HD50 for each compound with 95% confidence limits.\n(§2) Immediately following the injection, the mice, rats and rabbits were tested for loss of righting reflex. […] Once a loss was observed, the interval between the loss of righting reflex and the return to righting reflex was recorded. The anesthetized animals recovered righting reflexes spontaneously. To compare the duration of LORR of each compound at equipotent doses, groups of mice, rats and rabbits were injected with each compound at 2× HD50 over 10 s.\n(§3) Time to walk was the time required after righting before mice and rabbits walked from the center to the periphery of a 30-cm diameter dise.\n(§4) The rotarod test was conducted to evaluate the recovery to the motor coordination. Before the LORR test, mice were trained for 2 consecutive days. Trained mice could maintain their balance on rod for more than 2 mins. After the mice could walk from the center to the periphery of a 30-cm diameter dise, they were put on the rotarod. Mice were classified as behavioral recovery when, on being placed on the rod, they could maintain their balance for 20 s. The time to behavioral recovery was the time required after mice walked from the centre to the periphery of a 30-cm diameter disc before they could maintain their balance on rod for 20 s."}, "[2]": {"experiment": "Octanol:water partition coefficient", "assay_type": "physicochemical", "settings": "water buffered with 10 mm Tris (pH 7.4)", "description": "One mg of each hypnotic was added to 10 ml of water buffered with 10 mm Tris (pH 7.4) and 1 ml of octanol. The mixture was stirred overnight and then centrifuged to fully separate the organic and aqueous phases. The relative hypnotic concentration in each phase (i.e., the partition coefficient) was determined by high-performance liquid chromatography as described for blood."}, "[3]": {"tested_on": "GABAA receptor", "experiment": "GABAA radioligand binding assay ([3H]EBOB)", "settings": "50 µM compound, 0.5 nM [3H]EBOB, rat frontoparietal cortex", "description": "All the new compounds were dissolved in 5% DMSO.\nSpecific binding was determined in the presence of compounds.\nMembrane suspensions were thawed and centrifuged in incubation buffer at 10,000×g for 10 min and washed by a similar centrifugation. For displacement studies, membrane suspensions (5 mg original wet wt./ml) were incubated with 0.5 nM [^3H]EBOB ([…], Perkin Elmer Life Sciences, Boston, MA, USA) in the absence or presence of 50 µM of new compounds or reference drug for 2 h at 25°C. Nonspecific binding was determined in the presence of 10 µM Bicuculline. Bicuculline and picrotoxin were frequently used to determine the nonspecific binding when [3H]EBOB as radioligand [17]. Triplicate 1 ml samples were filtered on Whatman GF/B filters under vacuum with a Brandel Harvester and washed with 3×3 ml ice-cold buffer."}, "[4]": {"tested_on": "mice", "experiment": "in vivo", "settings": "LD50/HD50", "description": "(§5) The LD50 was determined in mice, rats, and rabbits and the TI was calculated as LD50/HD50."}, "[5]": {"experiment": "in vivo", "settings": "mouse, in vivo, mice, 95% confidence limits", "description": "as §5"}, "[6]": {"molecular_target": "T1, human GABAA receptor α1, β2 and γ2 (CHO-K1 cells) (Homo sapiens, UniProt P14867+P18507+P47870)", "T1 construct": "expressed in transfected cells; host or cells: CHO-K1 cells, stably transfected", "T1 sequence (P14867 28-456)": "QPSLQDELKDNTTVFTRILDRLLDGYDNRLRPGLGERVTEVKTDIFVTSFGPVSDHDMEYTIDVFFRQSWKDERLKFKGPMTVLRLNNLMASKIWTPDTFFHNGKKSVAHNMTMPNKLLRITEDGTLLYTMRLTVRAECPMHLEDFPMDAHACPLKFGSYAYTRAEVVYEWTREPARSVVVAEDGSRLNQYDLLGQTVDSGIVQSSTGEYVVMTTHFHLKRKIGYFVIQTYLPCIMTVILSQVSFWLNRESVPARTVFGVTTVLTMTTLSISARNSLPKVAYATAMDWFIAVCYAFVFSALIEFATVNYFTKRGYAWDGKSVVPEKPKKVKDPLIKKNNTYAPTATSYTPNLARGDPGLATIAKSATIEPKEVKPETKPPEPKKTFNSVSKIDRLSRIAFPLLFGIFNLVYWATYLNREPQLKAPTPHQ", "T1 sequence (P47870 25-512 limits assumed)": "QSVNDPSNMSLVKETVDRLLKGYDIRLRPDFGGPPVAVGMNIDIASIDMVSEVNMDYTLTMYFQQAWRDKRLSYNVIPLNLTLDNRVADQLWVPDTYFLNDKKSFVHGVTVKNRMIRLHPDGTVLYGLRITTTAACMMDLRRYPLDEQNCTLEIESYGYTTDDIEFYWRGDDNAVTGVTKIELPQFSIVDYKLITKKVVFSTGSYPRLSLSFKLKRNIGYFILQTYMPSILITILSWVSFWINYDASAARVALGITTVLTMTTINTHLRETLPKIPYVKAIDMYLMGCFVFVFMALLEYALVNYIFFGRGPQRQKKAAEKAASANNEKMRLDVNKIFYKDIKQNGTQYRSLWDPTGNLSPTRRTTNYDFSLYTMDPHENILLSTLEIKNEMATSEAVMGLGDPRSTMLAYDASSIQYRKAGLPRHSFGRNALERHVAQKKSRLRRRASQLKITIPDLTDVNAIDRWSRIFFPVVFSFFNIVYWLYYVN", "T1 sequence (P18507 40-475)": "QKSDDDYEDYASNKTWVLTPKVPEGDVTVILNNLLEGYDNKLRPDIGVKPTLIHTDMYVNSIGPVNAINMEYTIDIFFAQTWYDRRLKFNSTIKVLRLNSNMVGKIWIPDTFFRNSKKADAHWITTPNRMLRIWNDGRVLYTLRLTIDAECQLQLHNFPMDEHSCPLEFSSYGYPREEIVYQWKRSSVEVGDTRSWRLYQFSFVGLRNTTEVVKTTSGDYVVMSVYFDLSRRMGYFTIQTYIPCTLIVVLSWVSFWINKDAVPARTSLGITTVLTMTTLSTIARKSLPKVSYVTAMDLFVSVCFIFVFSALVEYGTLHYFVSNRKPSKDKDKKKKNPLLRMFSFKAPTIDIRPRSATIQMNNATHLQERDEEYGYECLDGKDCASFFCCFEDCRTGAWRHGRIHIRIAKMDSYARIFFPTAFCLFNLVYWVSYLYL", "experiment": "cell-based", "description": "Chinese hamster ovary (CHO)-K1 cells transfected stably with human GABAA receptor α1, β2 and γ2 subunit cDNAs were used. The cells were plated onto collagen-coated 35-mm cell culture dishes at low density for 1–7 days before recording. Test solutions were prepared in the extracellular solution on the day the patch-clamp assay was performed. The intracellular solution consisted of 22 mM KCl, 110 mM K-aspartate, 8 mM NaCl, 1 mM MgCl2, 1 mM CaCl2, 10 mM ethylene glycol tetraacetic acid, 5 mM Na2ATP, 10 mM hydroxyethyl piperazineethanesulfonic acid (HEPES) (adjusted to pH 7.2 using KOH), while the extracellular solution contained 145 mM NaCl, 4 mM KCl, 2 mM CaCl2, 2 mM MgCl2, 10 mM HEPES (adjusted to pH 7.4 using NaOH). The assay was performed at room temperature. Cells were maintained at −70 mV and the potentiation effect was assessed by co-application of the test compound with EC20 of muscimol after the cell was pre-incubated with the test compound for 45 s. GABA EC20 measured individually in each cell. The amplitude of the Cl− current in response to muscimol and/or test compound was determined. The response to the co-application of the test compound and muscimol was normalized to the control muscimol response as a percentage of the control. A potentiation effect was indicated by a value >100% of the control response. EC50 values were calculated using the four parameter logistic equation, where E was the amplitude of the muscimol-induced current in the presence of the anesthetic at concentration [A], EMAX was the amplitude of the response in the presence of a maximally effective concentration of the anesthetic, EC50 was the concentration of anesthetic producing a half-maximal enhancement of the muscimol-induced response and nH was the Hill coefficient. [drawing 1]"}, "[7]": {"tested_on": "rat", "assay_type": "in vivo", "description": "as §1, §2, §3, §4"}, "[8]": {"tested_on": "rat", "experiment": "Therapeutic index (LD50/HD50) in rat", "assay_type": "in vivo", "description": "as §5"}, "[9]": {"tested_on": "rabbits", "experiment": "Hypnotic potency and recovery after IV bolus in rabbits", "assay_type": "in vivo, rabbit", "description": "as §1, with “calculations.” for “calculations. From the percentage of mice, rats and rabbits in each group showing loss of righting reflex for ≥30 s, a probit analysis (SAS Institute) was performed to obtain an HD50 for each compound with 95% confidence limits.”\nas §2, with “The anesthetized animals recovered righting reflexes spontaneously.” left out\nas §3"}, "[10]": {"tested_on": "rabbits", "experiment": "Hypnosis in response to IV infusion in rabbits", "assay_type": "in vivo, rabbit", "description": "Induction of hypnosis in rabbits was achieved using 2× HD50 dose of test compound, and immediately after induction, infusion via the tail vein was commenced at half the HD50 dosage per min. the infusion rate was maintained for 20 min or 1 h or 3 h later. The depth of hypnosis was monitored by the magnitude of a withdrawal reflex to intermittent paw pinch provided by a pair of forceps."}, "[11]": {"settings": "mice, IV over 10 s, 95% confidence limits, read-out: HD50 (the source's name)"}, "[12]": {"settings": "mice, IV 2× HD50, mean ± SD (n = 10)"}}, "note": "Read-outs that look alike come from different tables or passages of the source.", "data": [{"smiles": "CCOC(=O)Cc1ccc(OCC(=O)N(CC)CC)c(OC(F)(F)F)c1", "note": "[Compound 5a, Ethyl 2-(4-(2-(diethylamino)-2-oxoethoxy)-3-(trifluoromethoxy)phenyl)acetate]", "values": [{"measurement": "ED50", "setting": "[1]; [11]", "value": 72.5, "unit": "mg/kg"}, {"measurement": "Duration of LORR", "setting": "[1]; [12]", "value": "155.2 ± 10.3", "unit": "s"}, {"measurement": "Onset time", "setting": "[1]; mice, IV, mean ± SD (n = 10)", "value": "35.1 ± 6.8", "unit": "s"}, {"measurement": "Octanol:Water Partition (Coefficient ± SD)", "setting": "[2]", "value": "2157±185"}, {"measurement": "GABAA binding (50 µmol) (Mean ± SD), percentage of inhibition", "setting": "[3]", "value": "69.1±4.2", "unit": "%"}, {"measurement": "TI", "setting": "[4]", "value": 6.1}, {"measurement": "LD50", "setting": "[5]", "value": 442, "unit": "mg/kg"}]}, {"smiles": "CC(C)c1cccc(C(C)C)c1O", "note": "[Propofol]", "values": [{"measurement": "EC50", "setting": "[6]", "value": 2.4, "unit": "µM"}, {"measurement": "HD50", "setting": "[7]; IV, 95% confidence limits", "value": "5.2 (4.5∼5.7) mg/kg"}, {"measurement": "Duration of LORR", "setting": "[7]; in vivo", "value": "349.3 ± 93.3", "unit": "s"}, {"measurement": "Time to walk", "setting": "[7]; in vivo", "value": "286.5 ± 86.5", "unit": "s"}, {"measurement": "time to behavioral recovery", "setting": "[7]; in vivo", "value": "335.8 ± 156.9", "unit": "s"}, {"measurement": "ED50", "setting": "[1]; iv, read-out: HD50", "value": 11.9, "unit": "mg/kg"}, {"measurement": "Time to walk", "setting": "[1]; mouse, in vivo", "value": "76.5 ± 42.5", "unit": "s"}, {"measurement": "time to behavioral recovery", "setting": "[1]; mouse, in vivo", "value": "242.7 ± 119.2", "unit": "s"}, {"measurement": "Duration of LORR", "setting": "[1]; mouse, in vivo, iv", "value": "240.9 ± 93.7", "unit": "s"}, {"measurement": "Onset time", "setting": "[1]; mouse, in vivo, iv", "value": "8.1 ± 1.6", "unit": "s"}, {"measurement": "TI", "setting": "[8]", "value": 5.9}, {"measurement": "Duration of LORR", "setting": "[9]; 2× HD50 dose, mean ± SD", "value": "326.6 ± 48.3", "unit": "s"}, {"measurement": "Time to walk", "setting": "[9]; 2× HD50 dose, mean ± SD", "value": "425.3 ± 162.3", "unit": "s"}, {"measurement": "HD50", "setting": "[9]; IV, 95% confidence limits", "value": "3.2 (2.3∼4.2) mg/kg"}, {"measurement": "time to walk after infusion", "setting": "[10]; 20-min IV infusion", "value": "167.9 ± 60.8", "unit": "s"}, {"measurement": "duration of LORR after cessation of infusion", "setting": "[10]; 20-min IV infusion at half the HD50 per min after 2× HD50 induction", "value": "485.6 ± 164.1", "unit": "s"}, {"measurement": "LD50", "setting": "[5]", "value": 64.4, "unit": "mg/kg"}]}, {"smiles": "CCCOC(=O)Cc1ccc(OCC(=O)N(CC)CC)c(OC(F)(F)F)c1", "note": "[Compound 5b, propyl 2-(4-(2-(diethylamino)-2-oxoethoxy)-3-(trifluoromethoxy)phenyl)acetate]", "values": [{"measurement": "ED50", "setting": "[1]; [11]", "value": 58.7, "unit": "mg/kg"}, {"measurement": "Duration of LORR", "setting": "[1]; [12]", "value": "162.6 ± 15.7", "unit": "s"}, {"measurement": "Onset time", "setting": "[1]; mice, IV, mean ± SD (n = 10)", "value": "32.4 ± 5.6", "unit": "s"}, {"measurement": "Octanol:Water Partition (Coefficient ± SD)", "setting": "[2]", "value": "4745±280"}, {"measurement": "GABAA binding (50 µmol) (Mean ± SD), percentage of inhibition", "setting": "[3]", "value": "73.9±5.3", "unit": "%"}, {"measurement": "TI", "setting": "[4]", "value": 5.9}, {"measurement": "LD50", "setting": "[5]; intravenous", "value": 346, "unit": "mg/kg"}]}]}
